Reference: ChEMBL document CHEMBL1139575, “Discovery and synthesis of a novel and selective drug-like P2X(1) antagonist” (Bioorg Med Chem Lett, 2005)

Tests used:
P2X purinoceptor 1 = target: T1, P2X purinoceptor 1 (Homo sapiens, UniProt P51575); experiment: Inhibitory concentration against human P2X purinoceptor 1 (hP2X1) expressed in CHO-K1 cells; assay type: functional, cell-based
T1 sequence (P51575 whole entry): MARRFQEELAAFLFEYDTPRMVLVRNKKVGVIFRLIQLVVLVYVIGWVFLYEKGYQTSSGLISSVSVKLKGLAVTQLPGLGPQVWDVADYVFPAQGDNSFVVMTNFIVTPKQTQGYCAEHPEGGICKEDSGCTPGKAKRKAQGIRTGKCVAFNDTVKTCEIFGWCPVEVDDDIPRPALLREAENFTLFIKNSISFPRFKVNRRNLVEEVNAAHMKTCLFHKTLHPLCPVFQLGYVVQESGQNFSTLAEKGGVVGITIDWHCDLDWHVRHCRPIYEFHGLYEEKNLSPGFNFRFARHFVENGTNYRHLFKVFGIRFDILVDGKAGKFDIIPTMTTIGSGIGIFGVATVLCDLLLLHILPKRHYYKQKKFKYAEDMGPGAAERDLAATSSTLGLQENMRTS

P2X purinoceptor 3 = target: T2, P2X purinoceptor 3 (Homo sapiens, UniProt P56373); experiment: Inhibitory concentration against human P2X purinoceptor 3 (hP2X3) expressed in CHO-K1 cells; assay type: functional, cell-based
T2 sequence (P56373 whole entry): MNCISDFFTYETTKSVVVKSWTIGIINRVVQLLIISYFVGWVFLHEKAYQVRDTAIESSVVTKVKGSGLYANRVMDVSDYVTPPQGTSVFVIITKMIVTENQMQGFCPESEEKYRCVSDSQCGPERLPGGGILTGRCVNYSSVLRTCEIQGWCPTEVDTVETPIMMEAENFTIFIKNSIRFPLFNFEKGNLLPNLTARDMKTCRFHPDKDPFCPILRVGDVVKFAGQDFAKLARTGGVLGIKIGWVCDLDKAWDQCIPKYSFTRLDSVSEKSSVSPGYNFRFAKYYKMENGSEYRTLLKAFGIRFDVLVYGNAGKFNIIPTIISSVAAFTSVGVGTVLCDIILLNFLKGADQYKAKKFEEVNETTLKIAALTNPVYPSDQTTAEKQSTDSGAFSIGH

P2X purinoceptor 2 = target: T3, P2X purinoceptor 2 (Homo sapiens, UniProt Q9UBL9); experiment: Inhibitory concentration against human P2X purinoceptor 2 (hP2X2) expressed in 1321N1 astrocytoma cells; assay type: functional, cell-based
T3 sequence (Q9UBL9 whole entry): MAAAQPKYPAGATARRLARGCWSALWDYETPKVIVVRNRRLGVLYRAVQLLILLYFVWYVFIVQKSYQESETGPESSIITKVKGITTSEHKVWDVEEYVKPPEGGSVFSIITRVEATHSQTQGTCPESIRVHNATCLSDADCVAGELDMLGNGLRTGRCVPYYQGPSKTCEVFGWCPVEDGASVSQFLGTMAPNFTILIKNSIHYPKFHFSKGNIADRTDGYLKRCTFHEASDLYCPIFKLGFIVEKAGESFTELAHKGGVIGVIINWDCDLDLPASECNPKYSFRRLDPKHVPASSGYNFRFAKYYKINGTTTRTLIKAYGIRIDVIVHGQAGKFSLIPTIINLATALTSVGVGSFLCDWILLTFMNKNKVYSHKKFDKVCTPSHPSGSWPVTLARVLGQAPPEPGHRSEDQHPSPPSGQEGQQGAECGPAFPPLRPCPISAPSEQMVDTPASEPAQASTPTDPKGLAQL

[1] = Inhibitory concentration against P2X purinoceptor 2/3 expressed in 1321N1 astrocytoma cells; assay type: functional, cell-based, Homo sapiens

Compound: O=C(N[C@H](Cc1cscn1)C(=O)N[C@@H](CC1CCCCC1)[C@@H](O)[C@@H](O)C1CC1)c1nc2ccccc2[nH]1
- IC50 (P2X purinoceptor 1): 3 µM
- IC50 (P2X purinoceptor 3): > 100 µM
- IC50 (P2X purinoceptor 2): > 100 µM
- IC50 [1]: > 100 µM
